Source: US20130252988A1, “COMPOSITIONS AND METHODS FOR TREATING MYELOFIBROSIS” (TARGEGEN, INC., priority 2010, published 2013)
Structures can show the parent of a compound that is named as a salt. Where two headings read alike, the source gives them in different places.

Tested on: subjects with myelofibrosis
Settings: for Discontinuation because of adverse event, number of subjects / Discontinued, subjects n (%): Table 1
[1] = Example 1, patients who started at =680 mg
[2] = Example 1, started at =680 mg, 24 patients not requiring RBC transfusions at baseline
[3] = MTD cohort, at least possibly related
[4] = Table 3: treatment-emergent hematologic toxicity, MTD subjects (N = 40)
[5] = Table 4: treatment-emergent non-hematologic AE, MTD subjects (N = 40)
[6] = Table 5: treatment-emergent non-hematologic laboratory finding, MTD subjects (N = 40)

Cc1cnc(Nc2ccc(OCCN3CCCC3)cc2)nc1Nc1cccc(S(=O)(=O)NC(C)(C)C)c1 [TG101348, N-tert-butyl-3-[(5-methyl-2-{[4-(2-pyrrolidin-1-ylethoxy)phenyl]amino}pyrimidin-4-yl)amino]benzenesulfonamide dihydrochloride monohydrate]
Patients who experienced DLT (800 mg/day): 2 of 6
Subjects who discontinued treatment during the extension study (Eight of 43 subjects): 19%
Patients who discontinued treatment (Example 1, 18 of 59 patients, median follow-up 12 weeks): 31%
Asymptomatic hyperlipasemia, patients [1]: 33%
Gr1/2 serum creatinine elevation, patients [1]: 38%
Gr3 diarrhea, number of patients [1]: 3
Gr3 nausea, number of patients [1]: 1
Gr3 neutropenia, patients [1]: 15%
Gr3 thrombocytopenia, patients [1]: 20%
Gr3 vomiting, number of patients [1]: 1
Gr4 neutropenia, patients [1]: 0%
Gr4 thrombocytopenia, patients [1]: 10%
Grade 1/2 transaminitis, patients [1]: 38%
Grade 3 anemia, patients [2]: 42%
Grade 4 anemia, patients [2]: 8%
Grade 3/4 neutropenia, patients (Example 1 background): 14%
Grade 3/4 thrombocytopenia, patients (Example 1 background): 25%
Long-term toxicities (Example 2 conclusions): no long-term toxicities
Subjects who discontinued treatment during the first 6 cycles (Fifteen of 59 subjects): 25%
Reason for discontinuation of study (MF-TG101348-001, subject 101-040, starting 680, termination 520 mg/day, 24 days, possibly related): Adverse events - diarrhea (grade 3; possibly
Reason for discontinuation of study (MF-TG101348-001, subject 102-019, starting dose 520, dose at termination 520 mg/day, 42 days of treatment, probably related): Adverse event - neutropenia (grade 3;
Reason for discontinuation of study (MF-TG101348-001, subject 104-027, starting 800, termination 680 mg/day, 77 days, possibly related): Adverse event - thrombocytopenia (grade 4;
Reason for discontinuation of study (MF-TG101348-001, subject 104-029, starting 680, termination 680 mg/day, 44 days, not related, also embolic stroke (grade 3; not related)): Adverse event - endocarditis (grade 3; not
Reason for discontinuation of study (MF-TG101348-001, subject 105-059, starting 680, termination 360 mg/day, 27 days, possibly related): Adverse event - cardiac arrest (grade 5;
Reason for discontinuation of study (MF-TG101348-001, subject 106-028, starting 800, termination 520 mg/day, 44 days, possibly related): Adverse event - thrombocytopenia (grade 4;
Subjects with serious adverse events considered at least possibly related to TG101348 (MF-TG101348-001 and -002): 8 subjects
Reason for discontinuation of study (MF-TG101348-002, subject 101-047, starting 680, termination 320 mg/day, cumulative 233 days, possibly related): Adverse event - elevated creatinine (grade 2;
Reason for discontinuation of study (MF-TG101348-002, subject 104-015, starting 360, termination 520 mg/day, cumulative 257 days, possibly related): Adverse event - depression (grade 3;
Reason for discontinuation of study (MF-TG101348-002, subject 104-017, starting 520, termination 200 mg/day, cumulative 309 days): Investigator discretion - disease progression
Reason for discontinuation of study (MF-TG101348-002, subject 105-013, starting 240, termination 360 mg/day, cumulative 321 days, probably related): Adverse event - thrombocytopenia (grade 4;
Grades 3/4 asymptomatic increase in ALT, subjects (MTD cohort): 8%
Grades 3/4 asymptomatic increase in AST, subjects (MTD cohort): 3%
Grades 3/4 asymptomatic increase in serum lipase, subjects (MTD cohort): 15%
Grades 3/4 increase in alkaline phosphatase, subjects (MTD cohort): 0%
Grades 3/4 increase in creatinine, subjects (MTD cohort): 0%
Subjects who required dose-reduction during the first 6 cycles (MTD cohort (n=40), 28 subjects): 70%
Grade 3 diarrhea, subjects [3]: 13%
Grade 3 nausea, subjects [3]: 5%
Grade 3 vomiting, subjects [3]: 3%
Dose-reduction, primary reason ALT elevation (MTD cohort, first 6 cycles): 7.5%
Dose-reduction, primary reason amylase/lipase elevation (MTD cohort, first 6 cycles): 10%
Dose-reduction, primary reason cytopenia(s) (MTD cohort, first 6 cycles): 20%
Dose-reduction, primary reason gastrointestinal adverse events (MTD cohort, first 6 cycles): 12.5%
Dose-reduction, primary reason investigator discretion (MTD cohort, first 6 cycles): 7.5%
Dose-reduction, primary reason other adverse events (MTD cohort, first 6 cycles): 12.5%
Maximum tolerated dose (MTD) (Phase I study, myelofibrosis): 680 mg
Discontinuation because of adverse event, number of subjects (MTD (40 enrolled)): 5
Discontinued, subjects n (%) (MTD (initiated at 680 or 800 mg/day; 40 enrolled)): 11 (28%)
Discontinuation because of adverse event, number of subjects (Overall (59 enrolled)): 6
Discontinued, subjects n (%) (Overall (59 enrolled)): 15 (25%)
Anemia: New Transfusion Requirement on Study, subjects n (%) (Table 3: MTD subjects not transfusion dependent at baseline (N = 24), transfusion on at least 2 occasions for Hb <10 g/dL): 16 (67%)
Neutropenia Grade 3, subjects n (%) [4]: 6 (15%)
Neutropenia Grade 4, subjects n (%) [4]: 0
Thrombocytopenia Grade 3, subjects n (%) [4]: 8 (20%)
Thrombocytopenia Grade 4, subjects n (%) [4]: 5 (13%)
Abdominal pain Grade 1, subjects n (%) [5]: 5 (13%)
Abdominal pain Grade 2, subjects n (%) [5]: 0
Abdominal pain Grade 3, subjects n (%) [5]: 0
Abdominal pain Grade 4, subjects n (%) [5]: 0
Anorexia Grade 1, subjects n (%) [5]: 7 (18%)
Anorexia Grade 2, subjects n (%) [5]: 0
Anorexia Grade 3, subjects n (%) [5]: 1 (3%)
Anorexia Grade 4, subjects n (%) [5]: 0
Constipation Grade 1, subjects n (%) [5]: 6 (15%)
Constipation Grade 2, subjects n (%) [5]: 1 (3%)
Constipation Grade 3, subjects n (%) [5]: 0
Constipation Grade 4, subjects n (%) [5]: 0
Contusion Grade 1, subjects n (%) [5]: 5 (13%)
Contusion Grade 2, subjects n (%) [5]: 0
Contusion Grade 3, subjects n (%) [5]: 0
Contusion Grade 4, subjects n (%) [5]: 0
Diarrhea Grade 1, subjects n (%) [5]: 21 (53%)
Diarrhea Grade 2, subjects n (%) [5]: 4 (10%)
Diarrhea Grade 3, subjects n (%) [5]: 5 (13%)
Diarrhea Grade 4, subjects n (%) [5]: 0
Edema peripheral Grade 1, subjects n (%) [5]: 7 (18%)
Edema peripheral Grade 2, subjects n (%) [5]: 1 (3%)
Edema peripheral Grade 3, subjects n (%) [5]: 0
Edema peripheral Grade 4, subjects n (%) [5]: 0
Fatigue Grade 1, subjects n (%) [5]: 2 (5%)
Fatigue Grade 2, subjects n (%) [5]: 3 (8%)
Fatigue Grade 3, subjects n (%) [5]: 1 (3%)
Fatigue Grade 4, subjects n (%) [5]: 0
Headache Grade 1, subjects n (%) [5]: 4 (10%)
Headache Grade 2, subjects n (%) [5]: 1 (3%)
Headache Grade 3, subjects n (%) [5]: 0
Headache Grade 4, subjects n (%) [5]: 0
Nausea Grade 1, subjects n (%) [5]: 20 (50%)
Nausea Grade 2, subjects n (%) [5]: 6 (15%)
Nausea Grade 3, subjects n (%) [5]: 2 (5%)
Nausea Grade 4, subjects n (%) [5]: 0
Proteinuria Grade 1, subjects n (%) [5]: 2 (5%)
Proteinuria Grade 2, subjects n (%) [5]: 3 (8%)
Proteinuria Grade 3, subjects n (%) [5]: 0
Proteinuria Grade 4, subjects n (%) [5]: 0
Vomiting Grade 1, subjects n (%) [5]: 20 (50%)
Vomiting Grade 2, subjects n (%) [5]: 7 (18%)
Vomiting Grade 3, subjects n (%) [5]: 1 (3%)
Vomiting Grade 4, subjects n (%) [5]: 0
ALT increased Grade 2, subjects n (%) [6]: 8 (20%)
ALT increased Grade 3, subjects n (%) [6]: 2 (5%)
ALT increased Grade 4, subjects n (%) [6]: 0
AST increased Grade 2, subjects n (%) [6]: 5 (13%)
AST increased Grade 3, subjects n (%) [6]: 1 (3%)
AST increased Grade 4, subjects n (%) [6]: 0
Creatinine increased Grade 2, subjects n (%) [6]: 11 (28%)
Creatinine increased Grade 3, subjects n (%) [6]: 0
Creatinine increased Grade 4, subjects n (%) [6]: 0
Hyperamylasemia Grade 2, subjects n (%) [6]: 0
Hyperamylasemia Grade 3, subjects n (%) [6]: 1 (3%)
Hyperamylasemia Grade 4, subjects n (%) [6]: 1 (3%)
Hyperkalemia Grade 2, subjects n (%) [6]: 3 (8%)
Hyperkalemia Grade 3, subjects n (%) [6]: 2 (5%)
